Test results from ChEMBL document CHEMBL4609989, “Synthesis and antileishmanial activity of fluorinated rhodacyanine analogues: The 'fluorine-walk' analysis” (Bioorg Med Chem, 2020).
Active and inactive are the calls of the source. The rule behind the calls is not given here.

Experiments:
[1] = tested on: Leishmania orientalis; experiment: Antileishmanial activity against Leishmania orientalis MHOM/TH/2010/PCM2 axenic amastigotes at 0.25 uM incubated for 72 hrs by resazurin dye based colorimetric assay relative to control; format: functional; settings: Leishmania orientalis, MHOM/TH/2010/PCM2, 72 h
[2] = tested on: Leishmania orientalis; experiment: Antileishmanial activity against Leishmania orientalis MHOM/TH/2010/PCM2 promastigote at 0.1 uM incubated for 72 hrs by resazurin dye based colorimetric assay relative to control; format: functional; settings: for inhibition at 0.1 µM: Leishmania orientalis, MHOM/TH/2010/PCM2, 72 h
[3] = tested on: Leishmania martiniquensis; experiment: Antileishmanial activity against Leishmania martiniquensis MHOM/MQ/92/MAR promastigote at 0.25 uM incubated for 72 hrs by resazurin dye based colorimetric assay relative to control; format: functional; settings: for inhibition at 0.25 µM: Leishmania martiniquensis, MHOM/MQ/92/MAR, 72 h
[4] = tested on: J774.A1; experiment: Cytotoxicity against mouse J774A.1 cells assessed as reduction in cell viability at 4.0 uM incubated for 72 hrs by colorimetric assay relative to control; format: cell-based; settings: j774.a1, 72 h
[5] = tested on: Leishmania martiniquensis; experiment: Antileishmanial activity against Leishmania martiniquensis MHOM/MQ/92/MAR promastigote at 0.1 uM incubated for 72 hrs by resazurin dye based colorimetric assay relative to control; format: functional; settings: for inhibition at 0.1 µM: Leishmania martiniquensis, MHOM/MQ/92/MAR, 72 h
[6] = tested on: Leishmania orientalis; experiment: Antileishmanial activity against Leishmania orientalis MHOM/TH/2010/PCM2 promastigote at 0.25 uM incubated for 72 hrs by resazurin dye based colorimetric assay relative to control; format: functional; settings: Leishmania orientalis, MHOM/TH/2010/PCM2, 72 h
[7] = tested on: J774.A1; experiment: Cytotoxicity against mouse J774A.1 cells assessed as reduction in cell viability at 0.25 uM incubated for 72 hrs by colorimetric assay relative to control; format: cell-based; settings: j774.a1, 72 h
[8] = tested on: Leishmania martiniquensis; experiment: Antileishmanial activity against Leishmania martiniquensis MHOM/MQ/92/MAR promastigote incubated for 72 hrs by resazurin dye based colorimetric assay; format: functional, organism-based; settings: Leishmania martiniquensis, MHOM/MQ/92/MAR, 72 h
[9] = tested on: Leishmania orientalis; experiment: Antileishmanial activity against Leishmania orientalis MHOM/TH/2010/PCM2 axenic amastigotes incubated for 72 hrs by resazurin dye based colorimetric assay; format: functional, organism-based; settings: Leishmania orientalis, MHOM/TH/2010/PCM2, 72 h
[10] = tested on: Leishmania orientalis; experiment: Antileishmanial activity against Leishmania orientalis MHOM/TH/2010/PCM2 promastigote incubated for 72 hrs by resazurin dye based colorimetric assay; format: functional, organism-based; settings: Leishmania orientalis, MHOM/TH/2010/PCM2, 72 h

Row | Compound | inhibition at 0.25 µM [1] [%] | inhibition at 0.1 µM [2] [%] | inhibition at 0.25 µM [3] [%] | Activity [4] [%] | inhibition at 0.1 µM [5] [%] | inhibition at 0.25 µM [6] [%] | Activity [7] | IC50 [8] [nM] | IC50 [9] [nM] | IC50 [10] [nM] | inhibition [2] | inhibition [3] | inhibition [5]
1 | CCn1c(=O)/c(=C/C=C2\Sc3cccc(F)c3N2C)s/c1=C\c1sc2ccccc2[n+]1C.[Cl-] | 40.2 | 33 | 73 | 13.4 | 30 | 84.2 | Non-Toxic |  |  |  |  |  | 
2 | CCn1c(=O)/c(=C/C=C2\Sc3cc(F)ccc3N2C)s/c1=C\c1sc2ccc(F)cc2[n+]1C.[Cl-] | 93 | 32.3 | 93.4 | 20.7 | 54.3 | 93 | Non-Toxic | 142 | 85 |  |  |  | 
3 | CCn1c(=O)/c(=C/C=C2\Sc3ccccc3N2C)s/c1=C\c1sc2cc(F)c(F)cc2[n+]1C.[Cl-] | 92.8 | 61.6 | 91.2 | 18.6 | 80.6 | 89.5 | Non-Toxic | 106 | 77 | 114 |  |  | 
4 | C[C@@H]1[C@H](O)[C@@H](C)/C=C/C=C/C=C/C=C/C=C/C=C/C=C/[C@H](O[C@@H]2O[C@H](C)[C@@H](O)[C@H](N)[C@@H]2O)C[C@@H]2O[C@](O)(C[C@@H](O)C[C@@H](O)[C@H](O)CC[C@@H](O)C[C@@H](O)CC(=O)O[C@H]1C)C[C@H](O)[C@H]2C(=O)O [AMPHOTERICIN B] | 91.1 | 96.2 | 97.5 | 16.7 | 94.2 | 96.7 | Non-Toxic | 31 | 108 | 23 |  |  | 
5 | CCn1c(=O)/c(=C/C=C2\Sc3ccccc3N2C)s/c1=C\c1sc2c(F)cccc2[n+]1C.[Cl-] | 42.9 | 13.9 | 85.2 | 88.5 | 41.1 | 88.9 | Non-Toxic |  |  |  |  |  | 
6 | CCCCCCCCCCCCCCCCOP(=O)([O-])OCC[N+](C)(C)C [MILTEFOSINE] | 24.9 |  |  | 12.4 |  | 4 | 7.3% | 15800 |  |  | inactive | inactive | inactive
7 | CCn1c(=O)/c(=C/C=C2\Sc3ccccc3N2C)s/c1=C\c1sc2ccccc2[n+]1C.[Cl-] | 36.8 | 11.5 | 70.8 | 19.2 | 21 | 81.5 | Non-Toxic | 658 | 909 | 302 |  |  | 
8 | CCn1c(=O)/c(=C/C=C2\Sc3ccccc3N2C)s/c1=C\c1sc2ccc(F)cc2[n+]1C.Cc1ccc(S(=O)(=O)[O-])cc1 | 91 | 78.8 | 89.5 | 31.1 | 85.4 | 91.7 | Non-Toxic | 76 | 110 | 98 |  |  | 
9 | CCn1c(=O)/c(=C/C=C2\Sc3ccc(F)cc3N2C)s/c1=C\c1sc2ccccc2[n+]1C.[Cl-] | 92.2 | 50.1 | 89.2 | 37 | 76.9 | 90.4 | Non-Toxic | 139 | 134 | 133 |  |  | 
10 | CCn1c(=O)/c(=C/C=C2\Sc3cc(F)ccc3N2C)s/c1=C\c1sc2ccccc2[n+]1C.[Cl-] | 91.2 | 60 | 87.8 | 61.8 | 40.3 | 96 | Non-Toxic |  | 223 | 88 |  |  | 
